Blank lines part the entries; values can stand above or below the compound they belong to.
Assays:
sulfotransferase SULT1A1 [1] = target: T1, sulfotransferase SULT1A1 (Rattus norvegicus, UniProt P17988); experiment: In vivo microPET imaging of sulfotransferase activity and inhibition in rat; parameters: species or system Sprague-Dawley rat
T1 construct: from tissue; host or cells: living Sprague-Dawley rat (brain, chest, abdomen)
Description: (§1) A bolus of a radiolabeled tracer is administered intravenously to a non-human primate, rodent, or other non-human mammal, and the distribution of tracer transport activity is followed by radiographic means, e.g., PET, microPET and/or SPECT. For PET, an intravenous dose of the tracer contains ˜0.1-3 mCi/kg (body weight) dissolved in <1 ml of 10% ethanol in saline. The identity of each organ and tissue taking up the tracer can be confirmed by CT scans. Scans can be conducted both with and without administering one or more pharmacological agents, e.g., 2,6-dichloro-4-nitrophenol, quercitin, curcumin, etc.
FIG. 7 depicts in vivo microPET imaging of sulfotransferase activity and inhibition in a male, Sprague-Dawley rat suffering from renal hypertension, chronic progressive nephropathy, and lung inflammation, using 4-[^18F]-fluoro-3-nitrophenol as a substrate and 2,6-dichloro-4-nitrophenol as an inhibitor. 4-[^18F]-fluoro-3-nitrophenol was administered as a bolus injection (0.5 to 2.0 mCi) and the rat brain was scanned dynamically for 60 min. Subsequently, the chest was scanned for 5 min., followed by a 5 min. scan of the abdomen.

[2] = Plasma metabolite analysis of tracer in rats; format: in vivo, Sprague-Dawley rats; conditions: rat plasma, after 10-15 min
Description: (§2) FIG. 5 depicts in vivo microPET imaging of sulfotransferase SULT1E1 expression in healthy and inflamed lungs in 8-9 month old male Sprague-Dawley rats, using the substrate 2-(4′-([^11C]-methylamino)phenyl)-6-hydroxybenzothiazole. On the left are shown the chest and upper abdomen of a healthy control rat; on the right is a rat suffering from renal hypertension, chronic progressive nephropathy, and lung inflammation. Both animals were injected with 2.0-2.5 mCi of activity. The images shown were acquired over the period of 15-25 min after injection. […] Warmer colors represent higher levels of tracer uptake.
Metabolite analysis was performed using reverse phase C-18 TLC plates and a mixture of methanol, acetic acid and water (80:5:15, respectively). Plasma was de-proteinated with addition of an equal volume of methanol. The supernatant was spotted on the plates and the plates developed in the mobile phase. The analysis of the plates was performed as described above in the description of the sulfonation assays (Ex. 1-25). Metabolites were identified as follows: […] samples of plasma were mixed with 500-1000 U of either […] (to remove the sulfonated metabolite) or glucoronidase (to remove glucoronidated metabolite). […] The supernatants were analyzed as described above and the results compared with the results for un-treated plasma.

sulfotransferase SULT1E1 [3] = target: T2, sulfotransferase SULT1E1 (Homo sapiens, UniProt P49888); experiment: In vivo PET imaging of SULT1E1 expression in humans; conditions: PET 20-45 minutes after injection
T2 construct: from tissue; host or cells: living human subjects (lungs, liver, kidneys)
T2 sequence (P49888 1-294): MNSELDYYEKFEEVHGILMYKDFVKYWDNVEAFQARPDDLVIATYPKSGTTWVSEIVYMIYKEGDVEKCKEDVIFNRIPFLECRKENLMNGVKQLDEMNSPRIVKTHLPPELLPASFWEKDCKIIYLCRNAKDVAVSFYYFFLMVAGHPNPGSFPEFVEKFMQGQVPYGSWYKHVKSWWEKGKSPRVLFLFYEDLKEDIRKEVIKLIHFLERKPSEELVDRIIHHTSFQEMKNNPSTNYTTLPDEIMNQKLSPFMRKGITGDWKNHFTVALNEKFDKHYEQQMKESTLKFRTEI
Description: A bolus of a radiolabeled tracer is administered to a human subject by intravenous injection, and its uptake into a tumor (in the case of cancer), one or more organs of interest, and/or other tissues of the body is followed radiographically. For a 50-70 kg person, 10 mCi of an appropriate tracer from Table 1 or 2 (e.g.) is dissolved in <10 ml 10% ethanol in saline and is injected intravenously, and the distribution of the tracer is followed dynamically with PET for up to 2 hours (multiple whole-body scans at different time intervals or dynamic PET scan of a specific organ). SULT activity in organs and tissues is determined using tracer kinetic modeling from the PET determined tracer uptake data. The anatomical location of tracer uptake in both normal subjects and cancer patients can be determined using CT scans.
FIG. 6 depicts in vivo PET imaging of sulfotransferase SULT1E1 expression in two adult male humans. […] Increased SULT1E1 expression associated with lung inflammation caused by smoking is clearly visible in the lungs of the smoker. Both subjects were scanned with PET 20-45 minutes after being injected with the tracer 2-(4′-([^11C]-methylamino)phenyl)-6-hydroxybenzothiazole. The smoker received a dose of 10.5 mCi, and the non-smoker received 10.0 mCi. The images were normalized by dividing the signal values with dose injected per kg of body weight.

sulfotransferase SULT1E1 [4] = experiment: In vivo microPET imaging of SULT1E1 expression in rats; parameters: species or system Sprague-Dawley rats; conditions: images 15-25 min after injection
Description: as §1, §2

SULT1A1 = target: T3, SULT1A1 (Homo sapiens, UniProt P50225); experiment: Substrate sulfonation assay, SULT1A1; format: biochemical; conditions: in vitro sulfonation
T3 construct: purchased Sigma; host or cells: sf-9 insect cells (baculovirus)
Text: (§3) β-Naphthol (BN, a reference control), para-nitrophenol (PNP), estradiol (E2), dehydroepiandrosterone (DHEA), dopamine, dithiothreitol (DTT), and MgCl2 were purchased from Sigma (St. Louis, Mo.). Cytosolic extract of sf-9 insect cells infected with a baculovirus containing SULT cDNAs (SULT1A1, SULT1A3, SULT1E1, SULT2A1) were also purchased from Sigma. [^35S]-3′-Phosphoadenosine 5′-Phosphosulfate (PAPS)(1-3 Ci/mmol) was purchased from Perkin Elmer (Waltham, Mass.). Aluminum-backed silica TLC plates were purchased from Whatman.
(§4) Substrate sulfonation assays were performed using cytosolic sulfotransferases SULT1A1, SULT1A3, SULT1E1, and SULT2A1. Enzyme kinetic parameters were determined by using substrate concentration curves. The sulfonation reaction was carried out using [^35S]-PAPS as the sulfate donor, and the reaction mixture was analyzed using a thin-layer chromatography (TLC) method described in literature (Falany et al., 2006). […] TLC plates were exposed on digital autoradiography plates for 2 hrs and read in with a Fuji BAS-5000 digital autoradiography plate reader. The results were quantitated with the software provided with the scanner. […] Vials were counted using MP-Ecolite+ LS fluid and a Packard Tricarb 2300TR LSC for 5 min per vial. Reactions were monitored for linearity with time and enzyme concentration to ensure the enzyme was the limiting factor. […]

SULT1E1 = target: T4, SULT1E1 (Homo sapiens, UniProt P49888); experiment: Substrate sulfonation assay, SULT1E1; format: biochemical; conditions: in vitro sulfonation
T4 construct: purchased Sigma; host or cells: sf-9 insect cells (baculovirus)
T4 sequence (P49888 1-294): T2 sequence (P49888 1-294)
Text: as §3, §4

[5] = rat brain; Mathis et al., 2004; cited from earlier work
sulfotransferase SULT1A1 [6] = target: T5, sulfotransferase SULT1A1 (Homo sapiens, UniProt P50225); experiment: Inhibition of SULT1A1 sulfonation of para-nitrophenol (PNP); format: biochemical; conditions: inhibition of SULT1A1 sulfonation of 4-nitrophenol; 37° C., 15 min, [35S]-PAPS
T5 construct: purchased Sigma; host or cells: sf-9 insect cells (baculovirus)
Text: as §3
Substrate sulfonation assays were performed using cytosolic sulfotransferases SULT1A1, SULT1A3, SULT1E1, and SULT2A1. Enzyme kinetic parameters were determined by using substrate concentration curves. The sulfonation reaction was carried out using [^35S]-PAPS as the sulfate donor, and the reaction mixture was analyzed using a thin-layer chromatography (TLC) method described in literature (Falany et al., 2006). Reaction mixtures consisted of 10 μL of substrates, originally dissolved in dimethyl sulfoxide and diluted to 1% with Tris-HCl buffer; 50 mM Tris-HCl buffer, pH 7.4; 0.1% bovine serum albumin; 7.5 mM DTT; and 1 μM [^35S]-PAPS in the final volume of 50 μL. The final concentration of dimethyl sulfoxide was kept at 0.2%. Reactions with SULT1E1 and SULT2A1 were supplemented with 7 mM MgCl2; reactions with SULT1A3 included 1 mM pargyline. Control reactions were performed under identical conditions without addition of substrates. Sulfonation reactions were carried out at 37° C. for 15 min. Enzymatic activity was terminated by precipitation with 50 μL of ice cold methanol and cooling the mixture at −20° C. Subsequently, 20 μL aliquots of the supernatant were spotted on silica gel TLC plates and were developed in t-butanol:acetic acid:water (8:1:1 by volume). Sulfonated products (Rf=0.66±0.05) were well separated from unreacted [^35S]PAPS, which was retained at the origin. TLC plates were exposed on digital autoradiography plates for 2 hrs and read in with a Fuji BAS-5000 digital autoradiography plate reader. The results were quantitated with the software provided with the scanner. Spots were localized and the silica gel was scraped into liquid scintillation vials. Vials were counted using MP-Ecolite+ LS fluid and a Packard Tricarb 2300TR LSC for 5 min per vial. Reactions were monitored for linearity with time and enzyme concentration to ensure the enzyme was the limiting factor.
In vitro inhibition reactions were performed using the standard SULT1A1 substrate, para-nitrophenol (PNP), against various 4′-substituted 2-phenyl-6-hydroxybenzothiazoles shown in Table 3. PNP was dissolved in 50 mM Tris-HCl buffer (pH 7.4), and inhibitors were dissolved in dimethyl sulfoxide and diluted to 1% dimethyl sulfoxide concentration with the Tris-HCl buffer. […]

brain SULT1A enzymes = conditions: Vietri et al., 2002b, read-out: IC50 for blocking sulfonation of R(−)-apomorphine; cited from earlier work

T5 sequence (P50225 whole entry): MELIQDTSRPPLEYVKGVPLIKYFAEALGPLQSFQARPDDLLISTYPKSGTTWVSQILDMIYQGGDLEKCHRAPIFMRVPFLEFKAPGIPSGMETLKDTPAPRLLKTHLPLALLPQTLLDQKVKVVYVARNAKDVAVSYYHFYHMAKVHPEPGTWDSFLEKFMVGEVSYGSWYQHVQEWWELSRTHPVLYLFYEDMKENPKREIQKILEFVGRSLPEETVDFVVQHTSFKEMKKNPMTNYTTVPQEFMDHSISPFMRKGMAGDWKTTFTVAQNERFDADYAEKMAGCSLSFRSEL
T1 sequence (P17988 whole entry): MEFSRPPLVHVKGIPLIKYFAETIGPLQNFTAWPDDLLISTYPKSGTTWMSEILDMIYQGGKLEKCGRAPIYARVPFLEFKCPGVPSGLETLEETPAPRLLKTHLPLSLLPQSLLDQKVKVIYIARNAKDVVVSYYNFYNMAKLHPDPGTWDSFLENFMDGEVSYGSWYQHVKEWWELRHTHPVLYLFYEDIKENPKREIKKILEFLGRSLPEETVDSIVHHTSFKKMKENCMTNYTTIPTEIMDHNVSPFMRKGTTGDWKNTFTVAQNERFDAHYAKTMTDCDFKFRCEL
T3 sequence (P50225 whole entry): as the sequence (P50225 whole entry) above

SMILES: O=[N+]([O-])c1cc(Cl)c(O)c(Cl)c1 [2,6-dichloro-4-nitrophenol]
- effect on SULT1A1 activity in vivo (microPET) (sulfotransferase SULT1A1 [1]; 5 mg/Kg at the time of the 4-[18F]-fluoro-3-nitrophenol bolus injection): inhibitory effect on SULT1A1 activity

SMILES: [11CH3]Nc1ccc(-c2nc3ccc(O)cc3s2)cc1 [2-(4′-([^11C]-methylamino)phenyl)-6-hydroxybenzothiazole]
- fraction of tracer in sulfated form in plasma [2]: ~90%
- tracer activity in liver and kidneys (sulfotransferase SULT1E1 [3]): high level of activity
- tracer uptake in lungs (sulfotransferase SULT1E1 [3]; versus background (muscles)): increased level of uptake compared with the background
- tracer uptake in lungs (sulfotransferase SULT1E1 [4]; healthy control rat): indistinguishable from the background
- tracer uptake in lungs (sulfotransferase SULT1E1 [4]; rat with lung inflammation): increased uptake
- tracer activity in liver (sulfotransferase SULT1E1 [4]; rats): high level of activity
- substrate for SULT1A1 (SULT1A1): not a substrate for SULT1A1
- substrate for SULT1E1 (SULT1E1): good marker of sulfotransferases, most specifically SULT1E1
- sulfonation in brain in vivo [5]: sulfonated in the rat brain in vivo

SMILES: O=[N+]([O-])c1cc(O)ccc1[18F] [4-[^18F]-fluoro-3-nitrophenol, 4-[^18F]Fluoro-3-nitrophenol]
- substrate for SULT1A1 in vivo (microPET) (sulfotransferase SULT1A1 [1]; rat, bolus injection 0.5 to 2.0 mCi): is a substrate for the sulfotransferase SULT1A1

SMILES: Oc1ccc2nc(-c3ccc(F)cc3)sc2c1 [Compound 19]
- Ki (sulfotransferase SULT1A1 [6]): 140 ± 10 nM

SMILES: O=c1c(O)c(-c2ccc(O)c(O)c2)oc2cc(O)cc(O)c12 [quercitin]
- IC50 (brain SULT1A enzymes): 16 ± 2.3 nM

Second part, the compound after the results:

- Ki (sulfotransferase SULT1A1 [6]): 5.1 ± 0.3 nM
SMILES: CNc1ccc(-c2nc3ccc(O)cc3s2)cc1 [Compound 14]

- Ki (sulfotransferase SULT1A1 [6]): 24 ± 2 nM
SMILES: COc1ccc(-c2nc3ccc(O)cc3s2)cc1 [Compound 17]

- Ki (sulfotransferase SULT1A1 [6]): 100 ± 20 nM
SMILES: CC(=O)Nc1ccc(-c2nc3ccc(O)cc3s2)cc1 [Compound 18]
